Earlier results in US12471592B2, “Cytoprotective compositions for short-term cells storage and transportation without cryopreservation and deep freezing” (priority 2021, dated 2025).
Like-named read-outs stand apart in the source and are kept apart here.

What was measured:
mouse blastocysts = details: for blastocysts survived: 20% vol/vol CPAs for 40 min at room temperature; for blastocysts subsequently developed: 30% vol/vol CPAs for 10 min at room temperature
mouse oocytes = details: increasing molarity
[1] = test system: vascular endothelial cells; details: for increase of permeability: raising the temperature from 2-4° C. to 22° C.; for Permeability: vascular endothelial cells, 2-4° C.
mouse morula = details: for minimum concentration giving significant reduction of mouse morula survival: 5 min of 25° C. exposure
[2] = test system: vascular endothelial cells; details: vitrifying concentrations, 2-4° C. for 9 min
[3] = test system: Chinese hamster ovary cell lines
[4] = test system: ARPE 19 human retinal pigment epithelial cell line
endothelial cells = details: reducing concentration from 3.0 M to 2.0 M
fibroblasts = details: 1% DMSO, within 5 sec
Rat retina cells = details: 24 hr exposure
bacteria = details: 33% DMSO for 10 min
[5] = cytochrome P450 oxidation system added

Compound	blastocysts survived (mouse blastocysts) [%]	increase of permeability [1]	Permeability [1] [cm/sec×10^−6]	minimum concentration giving significant reduction of mouse morula survival (mouse morula) [M]	cell survival [2] [%]	chromosome damage ([3]; without oxidation system)	blastocysts subsequently developed (mouse blastocysts) [%]	further results
CC(O)CCO (stereo not drawn) [1,3-butanediol]	64.2	–	–	–	–	–	–	–
CC(O)CO (stereo not drawn) [PG, propylene glycol]	87.5	13 fold	3.0	4	63.6	substantial chromosome damage	2.1	formaldehyde increase relative to DMSO or GLY (mouse oocytes): more than 30 fold; concentration impairing the developmental potential of mouse zygotes by decreasing intracellular pH (mouse zygotes): > 2.5 M
OCCO [EG, ethylene glycol]	95.8	nine-fold	2.0	7	33.2	No chromosome damage	74.6	chromosome damage [3, 5]: substantial chromosome damage
CO [METH, methanol]	–	–	–	–	–	–	–	concentrations resulting in protein damage or proteolysis (fish oocytes): above 6 M; concentration showing reduced mouse morula survival (mouse morula; 10 min exposure): 6 M
O=c1c(O)c(-c2ccc(O)c(O)c2)oc2cc(O)cc(O)c12 [quercetin]	–	–	–	–	–	–	–	level of ROS ([4]; compared with the control groups, 300 μM H2O2): decreased; cell viability ([4]; pretreated with quercetin (0.80 μM) before exposure to 300 μM H2O2): preserved in quercetin group in a dose dependent manner, particularly at 20 μM
CC(O)C(C)O (stereo not drawn) [BD, 2,3-butanediol]	8.3	17 fold	4.1	–	76.3	–	8.7	factor by which endothelial cell loss was cut (endothelial cells): 35
C[S+](C)[O-] [DMSO, dimethylsulfoxide]	96.7	17 fold	2.4	5	37.0	No chromosome damage	25.0	increase of intracellular calcium (fibroblasts): two- to six-fold; concentrations giving dose-dependent reduction in rat heart rate (rat heart rate): above 0.14 M; concentration at which apoptosis was exhibited (Rat retina cells): ≥ 0.1 % vol/vol; increase in mutagenicity (bacteria): 10 fold; concentration giving irreversible ultrastructural alterations to rat myocardium (rat myocardium; at 15° C.): above 2.82 M; concentration giving irreversible ultrastructural alterations to rat myocardium (rat myocardium; at 30° C.): above 1.41 M; chromosome damage [3, 5]: not; factor by which endothelial cell loss was cut (endothelial cells): 3
OCC(O)CO [GLY, glycerol]	81.7	–	–	6	–	–	–	–
